Source: ChEMBL document CHEMBL1156829 (Proc Natl Acad Sci U S A, 2008)

Legend:
[1] = tested on: Plasmodium falciparum; assay: NOVARTIS: Inhibition of Plasmodium falciparum 3D7 (drug-susceptible) proliferation in erythrocyte-based infection assay; type: functional, organism-based; settings: Plasmodium falciparum, 3D7
[2] = NOVARTIS: Cytotoxicity against human hepatocellular carcinoma cell line (Huh7); type: toxicity, cell-based, Huh-7; settings: Huh7 cells (hepatocellular carcinoma cell line)
[3] = tested on: Plasmodium falciparum; assay: NOVARTIS: Inhibition of Plasmodium falciparum W2 (drug-resistant) proliferation in erythrocyte-based infection assay; type: functional, organism-based; settings: Plasmodium falciparum, W2; read-out: EC50

Structure (SMILES) | EC50 [1] | CC50 [2] | EC50 [3]
COc1cc(CNc2ccc3nc(N)nc(N)c3c2)cc(OC)c1OC | > 1030 nM | > 10000 nM | > 1250 nM
COC(=O)C1=C(O)/C(=C\c2cc(C)n(-c3ccccc3F)c2C)N=C1C | > 974 nM | > 10000 nM | > 1250 nM
CCNC(=O)NS(=O)(=O)c1cnccc1Sc1cccc(C)c1 | > 1030 nM | > 10000 nM | > 1250 nM
N#Cc1nc(C(=O)N2CCOCC2)oc1N1CCOCC1 | 995 nM | > 10000 nM | > 1250 nM
CC(C)Sc1nc2c(c(=O)n1Cc1ccco1)C1(CCCCC1)Cc1ccccc1-2 | 9560 nM | > 100000 nM | > 12500 nM
CCOC(=O)C1=C(C)N=c2sc(=Cc3ccccc3OCc3ccccc3)c(=O)n2C1c1ccccc1OC(C)C (configuration not stated) | 9730 nM | > 100000 nM | > 12500 nM
Cc1ccn(C(=O)NCCNC(=O)Nc2ccc(Cc3ccc(NC(=O)NCCNC(=O)n4ccc(C)n4)cc3)cc2)n1 | > 953 nM | > 10000 nM | > 1250 nM
COc1cccc(CN2CCN(C(=O)c3c(C)noc3C)[C@@H](C)C2)c1 | > 936 nM | > 10000 nM | > 1250 nM
COc1cc2c(cc1OC)C(=NN=C1NC(C)(C)Cc3ccccc31)NC(C)(C)C2 | 1040 nM | > 10000 nM | > 1250 nM
CC(C)CC1=Nc2cc(C(=O)NC(C)C)ccc2CN1Cc1ccccc1 | > 1030 nM | > 10000 nM | > 1250 nM
Cc1ccc(N=C2C(=O)Nc3ccc(C)c(Br)c32)c(O)c1 | > 963 nM | > 10000 nM | > 1250 nM
CCOc1ccc(N2C(=O)c3ccccc3NC2(C)C)cc1 | > 9970 nM | > 100000 nM | > 12500 nM
Cc1nn(-c2cc(N3CCOCC3)ccc2[N+](=O)[O-])c(=O)c2ccccc12 | > 995 nM | > 10000 nM | > 1250 nM
CCOC(=O)c1ccc(NC(=O)c2sc(NC(=O)c3cc(OC)c(OC)c(OC)c3)c(C(=O)OCC)c2C)cc1 | > 995 nM | > 10000 nM | > 1250 nM
O=C(/C=C/c1ccccc1Cl)Nc1ccc(Oc2ccc3ccccc3c2Cl)c(Cl)c1 | > 958 nM | > 10000 nM | > 1250 nM
CC1CCCN(Cc2nnnn2-c2ccc(Cl)cc2)C1 (configuration not stated) | > 1010 nM | > 10000 nM | > 1250 nM
COC(=O)C1=C(C)N/C(=C/c2cc(C)n(-c3ccc(Cl)c(Cl)c3)c2C)C1=O | > 1020 nM | > 10000 nM | > 1250 nM
O=C(Nc1ccccc1Cl)NC1(C(=O)NCC2CCCO2)CCCCC1 (configuration not stated) | > 984 nM | > 10000 nM | > 1250 nM
CC(C)CNC(=O)c1cnc(NCCCN(C)C)nc1NCCc1ccccc1 | 983 nM | > 10000 nM | > 1250 nM
O=C(O)c1c[nH]c2cc(N3CCCCCC3)c(F)cc2c1=O | > 9800 nM | > 100000 nM | > 12500 nM
COc1ccc(CN2CCN(C(=O)c3sc4ncn(Cc5ccccc5F)c(=O)c4c3C)CC2)c(OC)c1OC | 1010 nM | > 10000 nM | > 1250 nM
Cc1c(Cl)cccc1NC(=O)CCC(=O)NNC(=O)c1ccccc1 | > 1010 nM | > 10000 nM | > 1250 nM
O=c1c2c3c(sc2[nH]c(=S)n1C1CCCCC1)CN(Cc1ccccc1)CC3 | > 1040 nM | > 10000 nM | > 1250 nM
CS(=O)(=O)Nc1cccc(-c2cnc(N)c(-c3ccc(C(=O)N4CCOCC4)cc3)n2)c1 | > 976 nM | > 10000 nM | > 1250 nM
CCN1CCN(c2cc(C)c3cc(NC(=O)/C=C/c4ccccc4Cl)ccc3n2)CC1 | 966 nM | > 10000 nM | > 1250 nM
CC1CC(C)(C)NC(=S)N1CCC(=O)NCCc1ccccc1 (configuration not stated) | 1010 nM | > 10000 nM | > 1250 nM
CC(C)CNc1nc(NCCN2CCCCC2)ncc1C(=O)NCc1ccccc1 | 1000 nM | > 10000 nM | > 1250 nM

Structure (SMILES) | EC50 [1] | CC50 [2] | EC50 [3]
COc1ccc(CCNc2nc(NCCCn3ccnc3)ncc2C(=O)NCc2ccccc2)cc1OC | 1000 nM | > 10000 nM | > 1250 nM
O=C(O)CC12CC3CC(C1)CC(c1ccc([N+](=O)[O-])cc1)(C3)C2 | > 883 nM | > 10000 nM | > 1250 nM
Cc1c(NC(=S)N2CCOCC2)c(=O)n(-c2ccccc2)n1C | > 919 nM | > 10000 nM | > 1250 nM
O=C(CSc1nnc2c(n1)[nH]c1ccccc12)Nc1ccc([N+](=O)[O-])cc1 | 9110 nM | > 100000 nM | > 12500 nM
COc1cc(O)c2c(=O)cc(CCOC(=O)Nc3ccccc3)[nH]c2c1 | > 905 nM | > 10000 nM | > 1250 nM
Cc1cc(C)n(-c2ccc(NC(=O)C3CCN(Cc4cc(C)c(C)o4)CC3)cc2)n1 | 888 nM | > 10000 nM | > 1250 nM
Nc1ccc(-c2cc(N)n(-c3ccc(Oc4ccccc4)c(S(=O)(=O)O)c3)n2)cc1 | > 921 nM | > 10000 nM | > 1250 nM
CC(C)CNC(=O)c1cnc(NCCC2CCCN2C)nc1NCC1CCCCC1 (configuration not stated) | 920 nM | > 10000 nM | > 1250 nM
O=C(COC(=O)c1ccc2c(c1)C(=O)N(c1ccc3ccccc3c1)C2=O)c1ccc(Br)cc1 | > 919 nM | > 10000 nM | > 1250 nM
CN(C)c1nnc(/C(C#N)=C/c2cc(C(=O)c3cccc(Cl)c3)cn2C)o1 | 936 nM | > 10000 nM | > 1250 nM
c1cn2c(-c3ccc(N4CCOCC4)cc3)cnc2c(NCc2ccc3c(c2)OCO3)n1 | > 927 nM | > 10000 nM | > 1250 nM
CN(C)CCCNC(=O)c1ccc(-c2cncc(-c3cccc(O)c3)n2)cc1 | 923 nM | > 10000 nM | > 1250 nM
O=C(NCc1ccccc1)c1cnc(NCCN2CCCCC2)nc1NCCc1ccccc1 | 950 nM | > 10000 nM | > 1250 nM
CC1CCCCN1CCCNc1ncc(C(=O)NCc2ccccc2)c(NC2CCCC2)n1 (configuration not stated) | 943 nM | > 10000 nM | > 1250 nM
CC1(C)CC(=O)c2cc(-c3ccc(Br)cc3)n(-c3ccccc3F)c2C1 | > 972 nM | > 10000 nM | > 1250 nM
Cc1cc2ncn(N=Cc3cccnc3)c2cc1C | > 1020 nM | > 10000 nM | > 1250 nM
CC(=O)C1=C(O)C(=O)N(c2ccc(Br)cn2)C1c1ccccc1[N+](=O)[O-] (configuration not stated) | > 9610 nM | > 100000 nM | > 12500 nM
CCCCCOC(=O)C1=C(C)Nc2ncnn2C1c1cccc([N+](=O)[O-])c1 (configuration not stated) | > 988 nM | > 10000 nM | > 1250 nM
CN1CCN(C(=O)c2cccc(-c3nc(-c4ccncc4)cnc3N)c2)CC1 | > 1000 nM | > 10000 nM | > 1250 nM
CCN(CC)c1ccc2c(c1)OC(N)=C(C#N)C2c1ccsc1 (configuration not stated) | > 9540 nM | > 100000 nM | > 12500 nM
Cc1ccc2c(nc3sc(=Cc4ccc(-c5ccccc5F)o4)c(=O)n32)c1C | 921 nM | > 10000 nM | > 1250 nM
CC1(C)CC(=O)C(=CNc2nc3c(s2)CCc2c-3cnn2-c2ccccc2)C(=O)C1 | > 942 nM | > 10000 nM | > 1250 nM
FC(F)(F)COc1ccc(OCC(F)(F)F)c(-c2ncnn2-c2ccccc2)c1 | > 9910 nM | > 100000 nM | > 12500 nM
COc1ccc(-n2c(=S)[nH]c3cc(C(=O)Nc4cccc(C)c4)ccc3c2=O)cc1OC | > 1040 nM | > 10000 nM | > 1250 nM
O=C(Cn1c2ccccc2c(=O)c2cc([N+](=O)[O-])ccc21)Nc1cccc(Cl)c1 | > 880 nM | > 10000 nM | > 1250 nM
CC1Cc2ccccc2N1C(=O)Cn1c(=O)oc2ccccc21 (configuration not stated) | > 907 nM | > 10000 nM | > 1250 nM
CCCCCc1ccc(-c2cn3nc(CCCCC)sc3n2)cc1 | > 921 nM | > 10000 nM | > 1250 nM
